Data as given in patent US20240270762A1, “PENICILLIN-BINDING PROTEIN INHIBITORS” (priority 2021, published 2024).
In brackets after ≈: the same amount, converted by molar mass.

What was measured:
[1] = target: T1, PBP2 from Neisseria gonorrhoeae (FA19) (Neisseria gonorrhoeae, UniProt P08149); test: Bocillin-FL fluorescence polarization competition binding, N. gonorrhoeae PBP2; details: fluorescence polarization competition binding assay using Bocillin-FL, read-out: N. gonorrhoeae PBP2 Potency
T1 construct: made in house
T1 sequence (P08149 whole entry): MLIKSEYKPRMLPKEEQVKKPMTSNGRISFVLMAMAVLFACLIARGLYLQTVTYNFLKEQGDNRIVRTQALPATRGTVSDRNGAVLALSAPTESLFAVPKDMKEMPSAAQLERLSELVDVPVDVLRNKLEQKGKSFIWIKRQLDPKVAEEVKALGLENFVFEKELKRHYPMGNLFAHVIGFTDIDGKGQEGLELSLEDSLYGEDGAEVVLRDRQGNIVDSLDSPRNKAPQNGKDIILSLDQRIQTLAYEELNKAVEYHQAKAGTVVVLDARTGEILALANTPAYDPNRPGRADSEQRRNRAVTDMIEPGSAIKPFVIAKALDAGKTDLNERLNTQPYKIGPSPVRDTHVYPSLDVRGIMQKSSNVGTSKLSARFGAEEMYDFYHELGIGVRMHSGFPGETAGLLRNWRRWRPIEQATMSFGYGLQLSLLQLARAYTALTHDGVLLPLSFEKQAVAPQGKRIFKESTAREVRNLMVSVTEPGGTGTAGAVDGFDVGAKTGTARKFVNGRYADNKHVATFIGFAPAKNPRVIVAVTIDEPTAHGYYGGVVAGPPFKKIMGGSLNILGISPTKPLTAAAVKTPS
Summary of the method: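 Fluorescence polarization competition with 0.1 μM Bocillin-FL (fluorescent penicillin V) against 0.25 μM N. gonorrhoeae FA19 PBP2 in 50 mM Hepes pH 8.0, 300 mM NaCl, 10% glycerol. Boronic acid inhibitors were preincubated with PBP, then Bocillin-FL was added and FP read (490/520 nm) up to 60 min. EC50 is the concentration halving PBP-bound Bocillin-FL.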

E. coli ATCC 25922 = test: microbe, parasite or virus in culture; type: cell-based; details: Escherichia coli, ATCC25922, read-out: MIC E. coli 25922
E. coli 901C = test: microbe, parasite or virus in culture; type: cell-based; details: Escherichia coli, read-out: MIC E. coli 901C
K. pneumoniae SI-117 = test: microbe, parasite or virus in culture; type: cell-based; details: Klebsiella pneumoniae, SI117, read-out: MIC K. pneumoniae SI-117
A. baumannii ATCC 19606 = test: microbe, parasite or virus in culture; type: cell-based; details: Acinetobacter baumannii, ATCC19606, read-out: MIC, A. baumannii ATCC 19606
P. aeruginosa ATCC 35151 = test: microbe, parasite or virus in culture; type: cell-based; details: Pseudomonas aeruginosa, ATCC35151, read-out: MIC P. aeruginosa ATCC 35151
[2] = system: P. aeruginosa (ΔmexAB-oprM); test: Broth microdilution MIC in CAMHB; type: cell-based; details: Pseudomonas aeruginosa; read-out: MIC P. aeruginosa ΔmexAB-oprM
N. gonorrhoeae WHO G = test: Liquid broth MIC in Fastidious broth; details: Neisseria gonorrhoeae, read-out: Minimum Inhibitory Concentration (MIC), N. gonorrhoeae WHO G
N. gonorrhoeae WHO L = test: Liquid broth MIC in Fastidious broth; details: Neisseria gonorrhoeae, read-out: Minimum Inhibitory Concentration (MIC), N. gonorrhoeae WHO L
N. gonorrhoeae WHO K = test: Liquid broth MIC in Fastidious broth; details: Neisseria gonorrhoeae, read-out: Minimum Inhibitory Concentration (MIC), N. gonorrhoeae WHO K
N. gonorrhoeae WHO X = test: Liquid broth MIC in Fastidious broth; details: Neisseria gonorrhoeae, read-out: Minimum Inhibitory Concentration (MIC), N. gonorrhoeae WHO X
N. gonorrhoeae WHO Q = test: Liquid broth MIC in Fastidious broth; details: Neisseria gonorrhoeae, read-out: Minimum Inhibitory Concentration (MIC), N. gonorrhoeae WHO Q
N. gonorrhoeae CDC-0197 = test: Liquid broth MIC in Fastidious broth; details: Neisseria gonorrhoeae, CDC0197, read-out: Minimum Inhibitory Concentration (MIC), N. gonorrhoeae CDC-0197

SMILES	EC50 [1]	MIC (E. coli ATCC 25922)	MIC (E. coli 901C)	MIC (K. pneumoniae SI-117)	MIC (A. baumannii ATCC 19606)	MIC (P. aeruginosa ATCC 35151)	MIC [2]	MIC (N. gonorrhoeae WHO G)	MIC (N. gonorrhoeae WHO L)	MIC (N. gonorrhoeae WHO K)	MIC (N. gonorrhoeae WHO X)	MIC (N. gonorrhoeae WHO Q)	MIC (N. gonorrhoeae CDC-0197)
CCN1CCN(C(=O)N[C@@H](C(=O)N[C@H]2Cc3ccc(F)c(C(=O)O)c3OB2O)c2ccc(P(=O)(O)O)cc2)C(=O)C1=O (single isomer, unassigned) [Example 10]	< 10 µM	> 128 µg/mL	< 1 µg/mL	> 128 µg/mL	32 to 64 µg/mL (≈ 52.8 to 106 µM)	< 1 µg/mL	32 to 64 µg/mL (≈ 52.8 to 106 µM)	< 1 µg/mL	< 1 µg/mL	< 1 µg/mL	< 1 µg/mL	< 1 µg/mL	< 1 µg/mL
CC(C)C(=O)NC(C(=O)N[C@H]1Cc2cccc(C(=O)O)c2OB1O)c1ccc(P(=O)(O)O)cc1 (stereo partly drawn) [Example 28, (3R)-2-hydroxy-3-(2-isobutyramido-2-(4-phosphonophenyl)acetamido)-3,4-dihydro-2H-benzo[e][1,2]oxaborinine-8-carboxylic acid]	< 10 µM	> 128 µg/mL	8 to 16 µg/mL (≈ 16.3 to 32.6 µM)	> 128 µg/mL	> 128 µg/mL	8 to 16 µg/mL (≈ 16.3 to 32.6 µM)	> 128 µg/mL	4 to 8 µg/mL (≈ 8.16 to 16.3 µM)	16 to 32 µg/mL (≈ 32.6 to 65.3 µM)	16 to 32 µg/mL (≈ 32.6 to 65.3 µM)	16 to 32 µg/mL (≈ 32.6 to 65.3 µM)	16 to 32 µg/mL (≈ 32.6 to 65.3 µM)	16 to 32 µg/mL (≈ 32.6 to 65.3 µM)
CC(=O)N1CCC[C@@H]1C(=O)N[C@H](C(=O)N[C@H]1Cc2cccc(C(=O)O)c2OB1O)c1ccc(P(=O)(O)O)cc1 [Example 33, (3R)-3-(2-((R)-1-acetylpyrrolidine-2-carboxamido)-2-(4-phosphonophenyl)acetamido)-2-hydroxy-3,4-dihydro-2H-benzo[e][1,2]oxaborinine-8-carboxylic acid]	< 10 µM	> 128 µg/mL	32 to 64 µg/mL (≈ 57.2 to 114 µM)	> 128 µg/mL	> 128 µg/mL	8 to 16 µg/mL (≈ 14.3 to 28.6 µM)	> 128 µg/mL	16 to 32 µg/mL (≈ 28.6 to 57.2 µM)	16 to 32 µg/mL (≈ 28.6 to 57.2 µM)	16 to 32 µg/mL (≈ 28.6 to 57.2 µM)	16 to 32 µg/mL (≈ 28.6 to 57.2 µM)	16 to 32 µg/mL (≈ 28.6 to 57.2 µM)	16 to 32 µg/mL (≈ 28.6 to 57.2 µM)
O=C(O)c1cccc2c1OB(O)[C@@H](NC(=O)C(NC(=O)C1CC1)c1ccc(P(=O)(O)O)cc1)C2 (stereo partly drawn) [Example 30, (3R)-3-(2-(cyclopropanecarboxamido)-2-(4-phosphonophenyl)acetamido)-2-hydroxy-3,4-dihydro-2H-benzo[e][1,2]oxaborinine-8-carboxylic acid]	< 10 µM	> 128 µg/mL	8 to 16 µg/mL (≈ 16.4 to 32.8 µM)	> 128 µg/mL	> 128 µg/mL	8 to 16 µg/mL (≈ 16.4 to 32.8 µM)	> 128 µg/mL	4 to 8 µg/mL (≈ 8.19 to 16.4 µM)	16 to 32 µg/mL (≈ 32.8 to 65.5 µM)	16 to 32 µg/mL (≈ 32.8 to 65.5 µM)	16 to 32 µg/mL (≈ 32.8 to 65.5 µM)	16 to 32 µg/mL (≈ 32.8 to 65.5 µM)	16 to 32 µg/mL (≈ 32.8 to 65.5 µM)
CCN1CCN(C(=O)N[C@@H](C(=O)N[C@H]2Cc3cccc(C(=O)O)c3OB2O)c2ccc(P(=O)(O)O)c(F)c2)C(=O)C1=O (single isomer, unassigned) [Example 7]	< 10 µM	32 to 64 µg/mL (≈ 52.8 to 106 µM)	< 1 µg/mL	> 128 µg/mL	8 to 16 µg/mL (≈ 13.2 to 26.4 µM)	< 1 µg/mL	8 to 16 µg/mL (≈ 13.2 to 26.4 µM)	< 1 µg/mL	< 1 µg/mL	< 1 µg/mL	< 1 µg/mL	< 1 µg/mL	< 1 µg/mL
CCN1CCN(C(=O)NC(C(=O)N[C@H]2Cc3cccc(C(=O)O)c3OB2O)c2ccc(P(=O)(O)O)cc2)C1=O (stereo partly drawn) [Example 42, (3R)-3-(2-(3-ethyl-2-oxoimidazolidine-1-carboxamido)-2-(4-phosphonophenyl)acetamido)-2-hydroxy-3,4-dihydro-2H-benzo[e][1,2]oxaborinine-8-carboxylic acid]	< 10 µM	32 to 64 µg/mL (≈ 57.1 to 114 µM)	< 1 µg/mL	> 128 µg/mL	32 to 64 µg/mL (≈ 57.1 to 114 µM)	< 1 µg/mL	8 to 16 µg/mL (≈ 14.3 to 28.6 µM)	< 1 µg/mL	1 to 2 µg/mL (≈ 1.78 to 3.57 µM)	1 to 2 µg/mL (≈ 1.78 to 3.57 µM)	1 to 2 µg/mL (≈ 1.78 to 3.57 µM)	< 1 µg/mL	< 1 µg/mL
CN1CCCN(C(=O)NC(C(=O)N[C@H]2Cc3cccc(C(=O)O)c3OB2O)c2ccc(P(=O)(O)O)cc2)C1=O (stereo partly drawn) [Example 38, (3R)-2-hydroxy-3-(2-(3-methyl-2-oxohexahydropyrimidine-1-carboxamido)-2-(4-phosphonophenyl)acetamido)-3,4-dihydro-2H-benzo[e][1,2]oxaborinine-8-carboxylic acid]	< 10 µM	> 128 µg/mL	2 to 4 µg/mL (≈ 3.57 to 7.14 µM)	> 128 µg/mL	> 128 µg/mL	2 to 4 µg/mL (≈ 3.57 to 7.14 µM)	32 to 64 µg/mL (≈ 57.1 to 114 µM)	< 1 µg/mL	16 to 32 µg/mL (≈ 28.6 to 57.1 µM)	4 to 8 µg/mL (≈ 7.14 to 14.3 µM)	16 to 32 µg/mL (≈ 28.6 to 57.1 µM)	4 to 8 µg/mL (≈ 7.14 to 14.3 µM)	1 to 2 µg/mL (≈ 1.78 to 3.57 µM)
CS(=O)(=O)N1CCN(C(=O)N[C@@H](C(=O)N[C@H]2Cc3cccc(C(=O)O)c3OB2O)c2ccc(P(=O)(O)O)c(F)c2F)C1=O (single isomer, unassigned) [Example 13]	< 10 µM	> 128 µg/mL	< 1 µg/mL	> 128 µg/mL	32 to 64 µg/mL (≈ 49.5 to 99 µM)	2 to 4 µg/mL (≈ 3.09 to 6.19 µM)	32 to 64 µg/mL (≈ 49.5 to 99 µM)	< 1 µg/mL	< 1 µg/mL	< 1 µg/mL	< 1 µg/mL	< 1 µg/mL	< 1 µg/mL
CS(=O)(=O)N1CCC[C@@H]1C(=O)N[C@H](C(=O)N[C@H]1Cc2cccc(C(=O)O)c2OB1O)c1ccc(P(=O)(O)O)cc1 [Example 34, (R)-2-hydroxy-3-((S)-2-((R)-1-(methylsulfonyl)pyrrolidine-2-carboxamido)-2-(4-phosphonophenyl)acetamido)-3,4-dihydro-2H-benzo[e][1,2]oxaborinine-8-carboxylic acid]	50 to 250 µM	> 128 µg/mL	8 to 16 µg/mL (≈ 13.4 to 26.9 µM)	> 128 µg/mL	> 128 µg/mL	8 to 16 µg/mL (≈ 13.4 to 26.9 µM)	> 128 µg/mL	4 to 8 µg/mL (≈ 6.72 to 13.4 µM)	16 to 32 µg/mL (≈ 26.9 to 53.8 µM)	16 to 32 µg/mL (≈ 26.9 to 53.8 µM)	16 to 32 µg/mL (≈ 26.9 to 53.8 µM)	16 to 32 µg/mL (≈ 26.9 to 53.8 µM)	16 to 32 µg/mL (≈ 26.9 to 53.8 µM)
CCN1CCN(C(=O)NC(C(=O)N[C@H]2Cc3cccc(C(=O)O)c3OB2O)c2ccc(S(=O)(=O)O)cc2)C(=O)C1=O (stereo partly drawn) [Example 189, (3R)-3-(2-(4-ethyl-2,3-dioxopiperazine-1-carboxamido)-2-(4-sulfophenyl)acetamido)-2-hydroxy-3,4-dihydro-2H-benzo[e][1,2]oxaborinine-8-carboxylic acid]	< 10 µM	> 128 µg/mL	< 1 µg/mL	> 128 µg/mL	> 128 µg/mL	< 1 µg/mL	8 to 16 µg/mL (≈ 13.6 to 27.2 µM)	< 1 µg/mL	4 to 8 µg/mL (≈ 6.8 to 13.6 µM)	1 to 2 µg/mL (≈ 1.7 to 3.4 µM)	4 to 8 µg/mL (≈ 6.8 to 13.6 µM)	1 to 2 µg/mL (≈ 1.7 to 3.4 µM)	1 to 2 µg/mL (≈ 1.7 to 3.4 µM)
